According to patent publication US6153190A, “Erythropoietin receptor antibodies” (priority 1997, dated 2000):

Tests used:
Format in all cases: cell-based
erythropoietin (Epo) [1] = experiment: Inhibition of Epo-induced proliferation of UT7-Epo cells; details: stated for all three assays
Procedure: An assay for the measurement of Epo activity on the proliferation of UT7Epo cells, which are dependent on Epo for growth [Komatsu et al., Blood, 82:456-464 (1993)] was performed as follows. The Epo used in the experiment is Epogen (2000 U/ml) [Amgen, Thousand Oaks, Calif.], diluted in phosphate buffered saline (PBS) and human serum albumin (HSA) for storage at 4° C. at 200 U/ml. Dilutions of cleaved EpoR or EpoRFc protein samples were made, so that final concentrations ranged from 0.001 to 100 ng/ml.
Samples of either EpoR or EpoRFc were added to wells at 10 ul/well in quadruplicate. Epo (0.2 U/ml) was added to each well. UT7Epo cells (1×10^5 cells/ml) were plated at 100 ul/well. After the plates were incubated at 37° C. for three days, 10 ul/well of ^3 H-thymidine (diluted to […] in IMDM+10% fetal calf serum (FCS)) were added to a final concentration of 10 uCi/ml. Plates were incubated at 37° C. for four hours with ^3 H-thymidine. The 96-well plates were harvested onto glass fiber filters using the Tomtec plate harvester with 10% cold TCA and cold 95% ethanol. Solid scintillant was melted onto the filters and the samples counted. The mean and standard error of quadruplicate samples was determined.
The data were reported as the percent of positive (0.2 U/ml) Epo control and are illustrated in FIG. 1.

erythropoietin (Epo) [2] = experiment: Inhibition of Epo-induced proliferation of 32D/Epo wt cells; details: stated for all three assays
Procedure: Another assay was performed for the measurement of Epo activity on the proliferation of 32D/Epo wt cells (Miura, O. et al., Mol. Cell. Biol., 13:1788-1795 (1993)). 32D/Epo wt is an IL-3 dependent cell line transfected with the human Epo receptor.
This assay is performed as described in Part A above, with the modification that the each well contains 1 U/ml Epo. The results of this assay are illustrated in FIG. 2.

erythropoietin (Epo) [3] = experiment: Inhibition of Epo-induced CFU-E colony formation; details: murine bone marrow CFU-E; stated for all three assays
Procedure: A third assay for measuring the ability of Epo to stimulate the differentiation of murine bone marrow cells to hemoglobin producing mature erythrocytes (CFU-E assay) was performed as described below.
Murine bone marrow cells were flushed from the femur of female B2D6F1 mice. The marrow cells (1×10^5 cells/ml final concentration) were mixed with IMDM, 25% FCS (final) and methylcellulose (0.8% final). 0.4 ml cells was plated per well of 24-well TC plate. EpoRFc (40 ul/well) samples were added and Epo (1 U/ml) was added to each well. Plates were incubated at 37° C., 5% CO2, 6% O2 for two days.
CFU-E colonies containing 8 or more red cells were counted. The mean and standard error of triplicate samples were determined and data reported as the percent of the positive (1 U/ml) Epo control. The results of this assay are illustrated in FIG. 3.

Measured: neutralization of the biological activity of Epo

EpoR: monomeric EpoR extracellular domain protein cleaved from EpoRFc with Factor Xa
able to bind, and thereby neutralize: all assays above
